The values below come from US20160194358A1, “LINEAR PEPTIDE ANTIBIOTCS” (priority 2013, published 2016).

In one assay the target is S. aureus SPase (Staphylococcus aureus, UniProt P0A070). Nature of the assay: biochemical. To be noted: IC 50 (nM) S. aureus, 20 μM substrate, 10 minutes preincubation. How it is done: Full length His-tagged S. aureus SPase protein was expressed similarly from E. coli BL21(DE3) containing the plasmid pCDF1-SaSpsB and purified similarly to the E. coli protein with the following exceptions. SPase protein was solubilized using 300 mM NaCl, 20 mM Tris pH 8.06, 5 mM Imidazole, 10% glycerol, 1% Triton X-100, prior to purification in Ni-NTA Superflow resin and resin bound protein was washed in a similar buffer containing 1% Elugent in place of Triton X-100 prior to protein eluted in wash buffer supplemented with 300 mM imidazole. […] All protein concentrations were determined by BCA assay.
(§1) Signal peptidase enzyme activity of the above proteins was measured using two fluorogenic peptide substrates (decanoyl-LSSPAYNO2A ? ADKabzPD and decanoyl-LTPTAYNO2A ? ASKKabzDD), where abz is the fluorescence donor 2-aminobenzamide, YNO2 is the fluorescence acceptor 3-nitrotyrosine, and the cleavage site is indicated with an arrow. Enzyme mix solution was prepared by diluting 2.5 nM of Escherichia coli or Staphylococcus aureus SPase protein into reaction buffers consisting of 20 mM PO4 pH 7.4, 100 mM NaCl, and 1% Elugent™ or octyl phenoxypolyethoxylethanol detergent at a concentration of 0.25% or 0.0625%. Reactions were initiated by the addition of substrate to a final concentration of 20 μM. Reaction progress was monitored by measuring the increase in fluorescence signal (excitation at 314 nm, emission at 416 nm) using a SpectraMax M2 fluorescence microplate reader. To determine IC50 values of test compounds, compound stock solutions were prepared in DMSO at a concentration of 1 mM. Three-folder serial dilutions of test compounds, starting at 10 μM, were prepared in enzyme mix solution and incubated at room temperature for 10 minutes. Following this incubation, fluorogenic substrate was added to a final concentration of 20 μM and the increase in fluorescence, corresponding to substrate cleavage, was monitored continuously at room temperature for 1 hour. Initial reaction rates were calculated based on the rate of increase in fluorescence during the reaction. Reaction rates were plotted as a function of compound concentration, and IC50 values are determined nonlinear regression analysis (SoftMaxPro 5.4, Molecular Devices™) of the sigmoidal dose-response curve.

For the next assay, the target named is T1, E. coli SPase (Escherichia coli, UniProt P00803).
T1 construct: Full length His-tagged E. coli SPase proteins; His; made in house; host or cells: E. coli BL21(DE3)
As to the kind of experiment: Biochemical SPase activity assay, fluorogenic peptide substrate, E. coli enzyme. To be noted: 20 μM substrate, 10 minutes preincubation, read-out: IC 50 (nM) E. coli. As to the method: Full length His-tagged E. coli SPase proteins were expressed in E. coli BL21(DE3) containing the plasmid pET23-lepB. Briefly, saturated overnight cultures grown in 20 ml of Luria-Bertani medium supplemented with ampicillin were subcultures into 1.5 L of Luria-Bertani, and shaken at 37° C. until an optical density at 600 nm of 0.4-0.5 was achieved.
as §1

Assay [1] concerns methicillin resistant Staphylococcus aureus (MRSA) strain USA300 (NRS384). Conditions: MRSA USA300 (NRS384), 35° C., 22 hours. The procedure, abridged: (§2)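 CLSI broth microdilution in cation-adjusted Mueller Hinton Broth with 0.002% Tween-80, two-fold dilutions starting at 64 μg/ml.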
Assay [2] concerns Escherichia coli strain MC4100 IMP-4213, which harbors an LptD mutation. Conditions: E. coli MC4100 IMP-4213, 35° C., 22 hours. The method, boiled down:
as §2

≈ marks a conversion by molar mass, not a printed value. Read-outs that look alike come from different tables or passages of the source. *1 amine or outer side, *2 acyl side, *3 side chain or, on linkers, in order; H or OH if unused. Where a SMILES comes first, the peptide text is derived from it. [ ]: non-standard residue; d: D form. The star is where a group is joined. ξ: configuration not given here. Benzoyl(4-(4-Cl-Ph)) = O=C(c1ccc(-c2ccc(Cl)cc2)cc1)*; ξ3Amino2oxobutanoyl = CC(N[*:1])C(=O)C(=O)[*:2]; NH(2-(2-pyridyl)ethyl) = c1ccc(CCN*)nc1; X1 = C[C@H](N[*:1])C(=O)C(=O)[*:2]; Thr(3ξ) = CC(O)[C@H](N)C(=O)O; Decanoyl = CCCCCCCCCC(=O)*; Dap = NC[C@H](N)C(=O)O; βAla = NCCC(=O)O; NHiPr = CC(C)N*; NHBu = CCCCN*; X13 = COCCCN* Some results are limits rather than exact numbers.

T1 sequence (P00803 whole entry): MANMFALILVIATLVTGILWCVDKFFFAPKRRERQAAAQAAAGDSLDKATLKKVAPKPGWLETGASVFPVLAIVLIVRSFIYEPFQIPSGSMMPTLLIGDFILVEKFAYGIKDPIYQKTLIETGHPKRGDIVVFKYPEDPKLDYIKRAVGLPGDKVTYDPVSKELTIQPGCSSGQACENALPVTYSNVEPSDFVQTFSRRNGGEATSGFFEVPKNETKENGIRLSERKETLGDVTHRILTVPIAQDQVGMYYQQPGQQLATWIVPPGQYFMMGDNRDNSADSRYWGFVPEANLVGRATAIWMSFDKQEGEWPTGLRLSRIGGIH
Chain of S. aureus SPase (P0A070 whole entry): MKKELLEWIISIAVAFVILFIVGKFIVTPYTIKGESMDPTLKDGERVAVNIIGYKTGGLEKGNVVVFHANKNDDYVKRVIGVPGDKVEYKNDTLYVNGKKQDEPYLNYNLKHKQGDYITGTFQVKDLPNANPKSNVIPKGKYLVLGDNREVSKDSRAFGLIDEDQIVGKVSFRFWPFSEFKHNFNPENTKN

As for `CCCCc1ccc(-c2ccc(C(=O)N[C@@H](CCN)C(=O)N[C@H](C(=O)N[C@@H](C)C(=O)N[C@@H](CCCCN)C(=O)N[C@@H](C)C(=O)C3CO3)[C@@H](C)O)cc2)cc1` (single isomer, unassigned) [Compound 201 P1], the IC50 against S. aureus SPase came to 10 nM; at E. coli SPase, 7 nM. The “MIC (μg/mL) S. aureus” value in assay [1] (listed as 201 P1) came to 0.09 µg/mL (≈ 0.12 µM). Also, in assay [2] (listed as 201 P1), the “MIC (μg/mL) E. coli” value stood at 1 µg/mL (≈ 1.33 µM).
Regarding `CCCCc1ccc(-c2ccc(C(=O)N[C@@H](CCN)C(=O)N[C@H](C(=O)N[C@@H](C)C(=O)N[C@@H](CCCCN)C(=O)N[C@@H](C)C(=O)C3CO3)[C@@H](C)O)cc2)cc1` (single isomer, unassigned) [Compound 201 P2], the results for the IC50 against S. aureus SPase and at E. coli SPase were 210 nM and 150 nM, respectively. In addition, the “MIC (μg/mL) S. aureus” value in assay [1] (listed as 201 P2) stood at 2 µg/mL (≈ 2.66 µM). The “MIC (μg/mL) E. coli” value in assay [2] (listed as 201 P2) was 5.7 µg/mL (≈ 7.58 µM).
Take `CCCCc1ccc(-c2ccc(C(=O)N[C@@H](CCN)C(=O)N[C@H](C(=O)N[C@@H](C)C(=O)N[C@@H](CCCCN)C(=O)N[C@@H](C)C(=O)C3OC3C)[C@@H](C)O)cc2)cc1` (single isomer, unassigned) [Compound 203 P1]: the values for the IC50 against S. aureus SPase and at E. coli SPase were 95 nM and 440 nM, respectively. Further, the “MIC (μg/mL) S. aureus” value in assay [1] (listed as 203 P1) was determined as 1.2 µg/mL (≈ 1.57 µM). Also, in assay [2] (listed as 203 P1), the “MIC (μg/mL) E. coli” value turned out to be 11 µg/mL (≈ 14.4 µM).
With `CCCCc1ccc(-c2ccc(C(=O)N[C@@H](CCN)C(=O)N[C@H](C(=O)N[C@@H](C)C(=O)N[C@@H](CCCCN)C(=O)N[C@@H](C)C(=O)C3OC3C)[C@@H](C)O)cc2)cc1` (single isomer, unassigned) [Compound 203 P2], the results for the IC50 on S. aureus SPase and at E. coli SPase were 1000 nM and 1500 nM, respectively. Besides, in assay [1] (listed as 203 P2), the “MIC (μg/mL) S. aureus” value worked out at 8 µg/mL (≈ 10.4 µM). The “MIC (μg/mL) E. coli” value in assay [2] (listed as 203 P2) was found to be 23 µg/mL (≈ 30 µM).
On to `CCCCc1ccc(-c2ccc(C(=O)N[C@@H](CCN)C(=O)N[C@H](C(=O)N[C@@H](C)C(=O)N[C@@H](CCCCN)C(=O)N[C@@H](C)C(=O)C3OC3C)[C@@H](C)O)cc2)cc1` (single isomer, unassigned) [Compound 205 P1], for which the IC50 at S. aureus SPase and on E. coli SPase was > 10000 nM throughout. In assay [1] (listed as 205 P1), the “MIC (μg/mL) S. aureus” value is >64 µg/mL. Also, in assay [2] (listed as 205 P1), the “MIC (μg/mL) E. coli” value turned out to be 32 µg/mL (≈ 41.8 µM).
On to `CCCCc1ccc(-c2ccc(C(=O)N[C@@H](CCN)C(=O)N[C@H](C(=O)N[C@@H](C)C(=O)N[C@@H](CCCCN)C(=O)N[C@@H](C)C(=O)C3OC3C)[C@@H](C)O)cc2)cc1` (single isomer, unassigned) [Compound 205 P2], for which the IC50 against S. aureus SPase and at E. coli SPase was > 10000 nM throughout. The “MIC (μg/mL) S. aureus” value in assay [1] (listed as 205 P2) is >64 µg/mL. Further, the “MIC (μg/mL) E. coli” value in assay [2] (listed as 205 P2) amounted to 32 µg/mL (≈ 41.8 µM).
For `CCCCc1ccc(-c2ccc(C(=O)N[C@@H](CCN)C(=O)N[C@H](C(=O)N[C@@H](C)C(=O)N[C@@H](CCCCN)C(=O)N[C@@H](C)C(=O)C3(C)CO3)[C@@H](C)O)cc2)cc1` (single isomer, unassigned) [Compound 207 P1], the values for the IC50 on S. aureus SPase and on E. coli SPase were 1400 nM and 1800 nM, respectively. In assay [1] (listed as 207 P1), the “MIC (μg/mL) S. aureus” value came out at 5.7 µg/mL (≈ 7.44 µM). The “MIC (μg/mL) E. coli” value in assay [2] (listed as 207 P1) was found to be 8 µg/mL (≈ 10.4 µM).
Take `CCCCc1ccc(-c2ccc(C(=O)N[C@@H](CCN)C(=O)N[C@H](C(=O)N[C@@H](C)C(=O)N[C@@H](CCCCN)C(=O)N[C@@H](C)C(=O)C3(C)CO3)[C@@H](C)O)cc2)cc1` (single isomer, unassigned) [Compound 207 P2]: the values for the IC50 against S. aureus SPase and at E. coli SPase were 1300 nM and 9900 nM, respectively. For the same compound, the “MIC (μg/mL) S. aureus” value in assay [1] (listed as 207 P2) worked out at 32 µg/mL (≈ 41.8 µM). In assay [2] (listed as 207 P2), the “MIC (μg/mL) E. coli” value was 32 µg/mL (≈ 41.8 µM).
Consider `COCCCNC(=O)C(=O)[C@H](C)NC(=O)[C@H](CCCCN)NC(=O)[C@H](C)NC(=O)[C@@H](NC(=O)[C@H](CN)NC(=O)c1ccc(-c2ccc(Cl)cc2)cc1)[C@@H](C)O` [Compound 101] ({Benzoyl(4-(4-Cl-Ph))}-[Dap]TAK[X1]-X13), for which the IC50 against S. aureus SPase amounted to 1600 nM; at E. coli SPase it was 870 nM. In addition, in assay [1], the “MIC (μg/mL) S. aureus” value was >64 µg/mL. For the same compound, the “MIC (μg/mL) E. coli” value in assay [2] is >64 µg/mL.
As for `CCNC(=O)C(=O)[C@H](C)NC(=O)[C@H](CCCCN)NC(=O)[C@H](C)NC(=O)[C@@H](NC(=O)[C@H](CN)NC(=O)c1ccc(-c2ccc(Cl)cc2)cc1)[C@@H](C)O` [Compound 102] ({Benzoyl(4-(4-Cl-Ph))}-[Dap]TAK[X1]-NHEt), the results for the IC50 on S. aureus SPase and at E. coli SPase were 580 nM and 440 nM, respectively. The “MIC (μg/mL) S. aureus” value in assay [1] was found to be 32 µg/mL (≈ 42.9 µM). In assay [2], the “MIC (μg/mL) E. coli” value was >64 µg/mL.
On to `CC(C)NC(=O)C(=O)[C@H](C)NC(=O)[C@H](CCCCN)NC(=O)[C@H](C)NC(=O)[C@@H](NC(=O)[C@H](CN)NC(=O)c1ccc(-c2ccc(Cl)cc2)cc1)[C@@H](C)O` [Compound 103] ({Benzoyl(4-(4-Cl-Ph))}-[Dap]TAK[X1]-NHiPr), for which the IC50 was 1400 nM against S. aureus SPase and 1100 nM at E. coli SPase. Moreover, the “MIC (μg/mL) S. aureus” value in assay [1] was >64 µg/mL. The “MIC (μg/mL) E. coli” value in assay [2] is >64 µg/mL.
As to `C[C@H](NC(=O)[C@@H](NC(=O)[C@H](CN)NC(=O)c1ccc(-c2ccc(Cl)cc2)cc1)[C@@H](C)O)C(=O)N[C@@H](CCCCN)C(=O)N[C@@H](C)C(=O)C(=O)NCCc1ccccn1` [Compound 104] ({Benzoyl(4-(4-Cl-Ph))}-[Dap]TAK[X1]-{NH(2-(2-pyridyl)ethyl)}), the IC50 against S. aureus SPase amounted to 840 nM; at E. coli SPase it was 950 nM. In assay [1], the “MIC (μg/mL) S. aureus” value came out at 64 µg/mL (≈ 77.8 µM). Moreover, the “MIC (μg/mL) E. coli” value in assay [2] is >64 µg/mL.
Regarding `CCCCNC(=O)C(=O)[C@H](C)NC(=O)[C@H](CCCCN)NC(=O)[C@H](C)NC(=O)[C@@H](NC(=O)[C@H](CN)NC(=O)c1ccc(-c2ccc(Cl)cc2)cc1)[C@@H](C)O` [Compound 105] ({Benzoyl(4-(4-Cl-Ph))}-[Dap]TAK[X1]-NHBu), the IC50 at S. aureus SPase was found to be 1300 nM; at E. coli SPase, 900 nM. The “MIC (μg/mL) S. aureus” value in assay [1] amounted to 51 µg/mL (≈ 65.9 µM). In assay [2], the “MIC (μg/mL) E. coli” value worked out at 64 µg/mL (≈ 82.8 µM).
With `CCCCCCCCCC(=O)NCCC(=O)N[C@@H](CCCCN)C(=O)N[C@H](C(=O)N[C@@H](C)C(=O)N[C@@H](CC(N)=O)C(=O)NC(C)C(=O)C(=O)NC)C(C)O` (stereo partly drawn) [Compound 106] ({Decanoyl-βAla}-K[Thr(3ξ)]AN[ξ3Amino2oxobutanoyl]-NHMe), the results for the IC50 against S. aureus SPase and at E. coli SPase were 45 nM and 6200 nM, respectively. In addition, in assay [1], the “MIC (μg/mL) S. aureus” value is >64 µg/mL. Further, the “MIC (μg/mL) E. coli” value in assay [2] is >64 µg/mL.
On to `CCCCCCCCCC(=O)N[C@@H](CCCCN)C(=O)N[C@H](C(=O)N[C@@H](C)C(=O)N[C@@H](CC(N)=O)C(=O)NC(C)C(=O)C(=O)NC)C(C)O` (stereo partly drawn) [Compound 107] (Decanoyl-K[Thr(3ξ)]AN[ξ3Amino2oxobutanoyl]-NHMe), for which the figures for the IC50 against S. aureus SPase and at E. coli SPase were 360 nM and 3200 nM, respectively. The “MIC (μg/mL) S. aureus” value in assay [1] was >64 µg/mL. The “MIC (μg/mL) E. coli” value in assay [2] is >64 µg/mL.
